Series [1] concerns N2A cells.
In series [2] the test system is proteasome. The class given is cell-based.
The subject of series [3] is WtPN2A cells.

Peptide text beside a SMILES is read from it. * marks the point of attachment. Cbz = O=C(OCc1ccccc1)*

For epoxomicin, the “rate of N2A cell death” value in series [1] is reported as “died at the same rates”.
With `CC(C)C[C@@H](C=O)NC(=O)[C@H](CC(C)C)NC(=O)[C@H](CC(C)C)NC(=O)OCc1ccccc1` [MG132] (Cbz-Leu-Leu-Leu-aldehyde), in series [2], the “proteasome activity after MG132 treatment” value is reported as “undetectable”, the “proteasome activity restored after removal of MG132” value was > 70 % of control levels and the “relative proteasome inhibiting activity” value is “stronger proteasome inhibiting activity than 10 μM Lactacystin”. Moreover, in series [3], the “cell death during proteasome inhibition relative to N2A cells” value is “died much more rapidly”. The cells died entry in series [1] is on record as “More than 50%”.

Values taken from patent US20040048237A1 (priority 2002, published 2004).
